According to article PMC5985520 (Molecular bioSystems, 2009):
Read-outs that look alike come from different tables or passages of the source.

Target: C2 domain of PKCα (Homo sapiens, UniProt P17252)
Test: SPR equilibrium binding of PKCα-C2 to lipid vesicles containing PA derivatives

## CCCCCCCC/C=C\CCCCCCCC(=O)O[C@H](COC(=O)CCCCCCCCCCCCCCC)COP(=O)(O)O [POPA, 1-palmitoyl-2-oleoyl-sn-glycero-3-phosphatidic acid]
read-out: Kd (dissociation constant for binding of PKCα-C2 to vesicles containing PA derivative), POPC:POPE:PA (40:40:20) vesicles, 20 mol% PA, L1 chip, 25°C, 25 mM Tris HCl pH 7.4, 150 mM NaCl, 1 mM CaCl2, 1 mM DTT
  Kd: 440 ± 50 nM
read-out: Kd (dissociation constant for binding of PKCα-C2 to vesicles containing PA derivative), POPC:POPE:PA (55:40:5) vesicles, 5 mol% PA, L1 chip, 25°C, 25 mM Tris HCl pH 7.4, 150 mM NaCl, 1 mM CaCl2, 1 mM DTT
  Kd: 490 ± 90 nM
